Experiments:
[1] = tested on: reversed canal sac of colon/rectum; assay: Calcium absorption in reversed canal sac, colon/rectum; type: cell-based, Wister rats
Method: (§1) Experiment 1 confirmed that cyclic tetrasaccharide promotes mineral absorption in alimentary canal of rat concretely in intestinum ileum or its upper alimentary canal. The following experiment was carried out in order to determine a part of alimentary canal, cyclic tetrasaccharide acts on to promote mineral absorption. Twenty heads of Wister rats (nine week aged male, commercialized by Charlesriver Corporation, Kanagawa, Japan) were bred for three days with a usual solid feed for rats. Under the anesthetization with ether, alimentary canal was taken out from each rat which had been bled from a jugular vein and treated by abdominal operation. Each alimentary canal was divided into jejunum, intestinum ileum and colon/rectum and washed with physiological saline to remove the content. The resulting jejunum specimen, intestinum ileum specimen or colon/rectum specimen was cut off to prepare each midsection sized with about 10 cm in length. The resulting midsection of each specimen was reversed using a glass rod and immersed in a physiological saline babbled with gas consisting of 95% oxygen and 5% carbon dioxide. The resultant was cut into pieces sized with 5 cm in length and each piece was tied with a suture thread at both ends to prepare a reversed canal sac, and injected with about 0.5 ml of an internal sac solution containing 30 mM Tris-HCl buffer (pH7.4), 125 mM sodium chloride, 4 mM potassium chloride, 10 mM glucose and 1.25 mM calcium chloride (dihydrate) with a syringe and weighed. The resulting sac was immersed in an external sac solution (being bubbled with the gas consisting of 95% oxygen and 5% carbon dioxide) containing 50 mM, 100 mM or 200 mM of the same cyclic tetrasaccharide to Experiment 1 in the above solution containing 30 mM Tris-HCl buffer (pH7.4), 125 mM sodium chloride, 4 mM potassium chloride, 10 mM glucose and 1.25 mM calcium chloride (dihydrate). At 15 or 30 minutes after the immersion, the reversed canal sac was taken out from the solution and washed with distilled water. The internal sac solution was collected from the resulting sac and admixed with distilled water to give a final volume of 25 ml. The resulting solution was subjected to a calorimetric measurement of calcium content using “CALCIUM TEST C WAKO™” (commercialized by Wako Pure Chemicals Corporation, Osaka, Japan). As a negative control, an external sac solution without saccharides. As a positive control, an external sac solution containing 200 mM maltitol, reported to have the effect on promoting mineral absorption though intestinal canal, instead of cyclic tetrasaccharide were prepared and carried out in the same manner. Speed of calcium absorption (nmol/min·cm^2) and its relative values defining the value of negative control as 100 were calculated.

[2] = Remaining cyclic tetrasaccharide in contents of alimentary canal and excrement of rats; type: in vivo, Wister rats; conditions: for Remaining percentage of cyclic tetrasaccharide in content of appendix / Remaining percentage of cyclic tetrasaccharide in content of intestinum ileum / Remaining percentage of cyclic tetrasaccharide in excrement: relative to chromium marker
Description: Forty of Wister rats weighing 110 to 120 g (five-weeks aged male, commercialized by Charles River Japan Inc., Yokohama, Japan) were bred with a feed containing ingredients (%) shown in Table 1 for one week in order to be familiarized. The familiarized rats were randomly divided into four groups with ten rats each. Each group was experimentally bred for eight weeks with either a feed without cyclic tetrasaccharide shown in Table 1 (hereinafter, it is called as “basic feed”), or another feed of basic feed supplemented with 1%, 2% or 5% on a dry solid basis, of cyclic tetrasaccharide in a crystalline anhydrous powder form with a purity of 99.5%, prepared in the following Example A-3. These basic feed and three kinds of feeds with cyclic tetrasaccharide were prepared to contain 44.75% of the total amount of cyclic tetrasaccharide and corn starch in each feed. From one week before the end of the breeding test, in order to determine the metabolism of calcium, magnesium, iron, sodium, potassium and phosphorus (hereinafter, may be called “minerals” in all), rats in the all groups were fed with the four types of feeds supplemented with 0.5% of chromium oxide as a non-absorbed marker for the minerals. The rats were bred at 25° C. in a manner of freely allowing to take feeds and water under a condition of 12 hours regular interval between of light and shade. After completion of experimental breeding, all rats were individually weighed to calculate the average of weight and further calculate the rate of increased weight for each group.
Two days before the end of the breeding test, rats were placed into a gauge for measuring metabolism to collect their excrement in two days. The resulting excrement was subjected to the measurement of the contents of cyclic tetrasaccharide, each mineral, and chromium. After the breeding test, the rats were anatomized in an anesthetized condition to take out their alimentary canals including jejunum, intestinum ileum, appendix and colon/rectum. After the resulting alimentary canals were weighed, their contents were also weighed and subjected to the measurement of the amount of cyclic tetrasaccharide, minerals and chromium. The rats, which had been taken out their alimentary canals, were dislocated at their cervical vertebrae and taken out their femurs from right legs. The resulting femurs were subjected to the measurement of the amount of ashes, calcium, magnesium and phosphorus. The following(s) explain the methods of quantitative analysis of cyclic tetrasaccharide and the methods of measurement of minerals and chromium.
One gram of a feed was admixed with 5 ml of 80% ethanol heated at 85° C. under reflux for 15 minutes to extract saccharides. The resulting saccharide sample was subjected to TMS derivatization in a usual manner. Three microliters of the sample was applied to a gas chromatography (“GC-16™”, commercialized by Shimazu Corporation, Kyoto, Japan) equipped with OV-17 packed column (“2% Silicone, OV-17 Chromosorb W/AW DMSC 80-100 mesh, 3 mmID×2 m, SUS”, produced by GL Science Corporation). The inner column temperature was kept at 160° C. for two minutes, and heated up to 320° C. at a rate of 7.5° C./min. The amount of cyclic tetrasaccharide was quantified by using nitrogen gas as a carrier (35 ml/min). While, in order to quantify the amounts of the contents of jejunum, intestinum ileum, appendix, colon/rectum and excrement, 0.05 g of each sample was weighed in a micro tube for gas chromatography and dried in a desiccator with phosphorus pentoxide. The resulting samples were subjected to TMS derivatization in a usual manner and quantified by gas chromatography.
The remaining percentages (%) were calculated using the following numerical formula, based on the rate of the amount of cyclic tetrasaccharide to chromium in each feed and the rate of those in the contents or excrement in consideration of that chromium is never absorbed by living bodies; […]

[3] = tested on: reversed canal sac of jejunum; assay: Calcium absorption in reversed canal sac, jejunum; type: cell-based, Wister rats
Method: as §1

[4] = 50 mM saccharide in external sac solution
[5] = 100 mM saccharide in external sac solution
[6] = 200 mM saccharide in external sac solution
[7] = 1% cyclic tetrasaccharide in feed
[8] = 2% cyclic tetrasaccharide in feed
[9] = 5% cyclic tetrasaccharide in feed
[10] = feed supplemented with 1%, 2% or 5% of cyclic tetrasaccharide

Amount of cyclic tetrasaccharide in content of appendix [2, 7]: 0.0 mg/g
Amount of cyclic tetrasaccharide in content of intestinum ileum [2, 7]: 60.5 mg/g
Amount of cyclic tetrasaccharide in excrement [2, 7]: 0.0 mg/g
Remaining percentage of cyclic tetrasaccharide in content of appendix [2, 7]: 0%
Remaining percentage of cyclic tetrasaccharide in content of intestinum ileum [2, 7]: 95%
Remaining percentage of cyclic tetrasaccharide in excrement [2, 7]: 0%
Amount of cyclic tetrasaccharide in content of appendix [2, 8]: 0.0 mg/g
Amount of cyclic tetrasaccharide in content of intestinum ileum [2, 8]: 184.1 mg/g
Amount of cyclic tetrasaccharide in excrement [2, 8]: 0.0 mg/g
Remaining percentage of cyclic tetrasaccharide in content of appendix [2, 8]: 0%
Remaining percentage of cyclic tetrasaccharide in content of intestinum ileum [2, 8]: 95%
Remaining percentage of cyclic tetrasaccharide in excrement [2, 8]: 0%
Amount of cyclic tetrasaccharide in content of appendix [2, 9]: 0.0 mg/g
Amount of cyclic tetrasaccharide in content of intestinum ileum [2, 9]: 298.0 mg/g
Amount of cyclic tetrasaccharide in excrement [2, 9]: 0.0 mg/g
Remaining percentage of cyclic tetrasaccharide in content of appendix [2, 9]: 0%
Remaining percentage of cyclic tetrasaccharide in content of intestinum ileum [2, 9]: 90%
Remaining percentage of cyclic tetrasaccharide in excrement [2, 9]: 0%
cyclic tetrasaccharide in the appendix and excrement [2, 10]: not detected at all
cyclic tetrasaccharide remained up to intestinum ileum without digestion [2, 10]: at least 90%
SMILES: OC[C@H]1O[C@@H]2OC[C@H]3O[C@H](O[C@@H]4[C@@H](O)[C@@H](OC[C@H]5O[C@H](O[C@H]([C@H]2O)[C@@H]1O)[C@H](O)[C@@H](O)[C@@H]5O)O[C@H](CO)[C@H]4O)[C@H](O)[C@@H](O)[C@@H]3O [cyclic tetrasaccharide, cyclo{>6)-α-D-glucopyranosyl-(1>3)-α-D-glucopyranosyl-(1>6)-α-D-glucopyranosyl-(1>3)-α-D-glucopyranosyl-(1>}]
Absorption speed of calcium in alimentary canal sac, Colon/Rectum [1, 4]: 13.5 ※ nmol/min · cm^2
Relative value of calcium absorption speed (control = 100), Colon/Rectum [1, 4]: (101)
Absorption speed of calcium in alimentary canal sac, Colon/Rectum [1, 5]: 14.6 *※ nmol/min · cm^2
Relative value of calcium absorption speed (control = 100), Colon/Rectum [1, 5]: (109)
Absorption speed of calcium in alimentary canal sac, Colon/Rectum [1, 6]: 15.4 *※ nmol/min · cm^2
Relative value of calcium absorption speed (control = 100), Colon/Rectum [1, 6]: (116)
promotion of calcium absorption in colon/rectum ([1]; reversed sac): slightly
Absorption speed of calcium in alimentary canal sac, Jejunum [3, 4]: 26.5 *※ nmol/min · cm^2
Relative value of calcium absorption speed (control = 100), Jejunum [3, 4]: (124)
Absorption speed of calcium in alimentary canal sac, Jejunum [3, 5]: 37.6 *※ nmol/min · cm^2
Relative value of calcium absorption speed (control = 100), Jejunum [3, 5]: (176)
Absorption speed of calcium in alimentary canal sac, Jejunum [3, 6]: 39.0 *※ nmol/min · cm^2
Relative value of calcium absorption speed (control = 100), Jejunum [3, 6]: (183)
promotion of calcium absorption in jejunum ([3]; reversed sac): strongly promoted

— patent US20080113938A1, “ACCELERATOR FOR MINERAL ABSORPTION AND USE THEREOF” (KABUSHIKI KAISHA HAYASHIBARA SEIBUTSU KAGAKU KENKYUJO, priority 2003, published 2008)
